Data: ChEMBL document CHEMBL1125312, “Highly potent, orally active diester macrocyclic human renin inhibitors” (J Med Chem, 1992)

Tests used:
[1] = tested on: Rattus norvegicus; assay: Compound was evaluated for the percentage of feces excretion of radioactivity, by male Sprague-Dawley rats after oral administration of compound dose (1 mg/kg) at 0-24 hr; assay type: ADME, organism-based; details: in vivo
[2] = tested on: Rattus norvegicus; assay: Compound was evaluated for the percentage of feces excretion of radioactivity, by male Sprague-Dawley rats after oral administration of compound dose (1 mg/kg) at 24-48 hr; assay type: ADME, organism-based; details: in vivo
[3] = tested on: Rattus norvegicus; assay: Compound was evaluated for the percentage of feces excretion of radioactivity, by male Sprague-Dawley rats after intravenous administration of compound dose (1 mg/kg) at 0-24 hr; assay type: ADME, organism-based; details: in vivo
[4] = tested on: Rattus norvegicus; assay: Compound was evaluated for the percentage of feces excretion of radioactivity, by male Sprague-Dawley rats after intravenous administration of compound dose (1 mg/kg) at 24-48 hr; assay type: ADME, organism-based; details: in vivo
[5] = tested on: Rattus norvegicus; assay: Compound was evaluated for the percentage of urine excretion of radioactivity, by male Sprague-Dawley rats after oral administration of compound dose (1 mg/kg) at 0-24 hr; assay type: ADME, organism-based; details: in vivo
[6] = tested on: Rattus norvegicus; assay: Compound was evaluated for the percentage of urine excretion of radioactivity, by male Sprague-Dawley rats after oral administration of compound dose (1 mg/kg) at 24-48 hr; assay type: ADME, organism-based; details: in vivo
[7] = tested on: Rattus norvegicus; assay: Compound was evaluated for the percentage of urine excretion of radioactivity, by male Sprague-Dawley rats after oral administration of compound dose (1 mg/kg) at 48-72 hr; assay type: ADME, organism-based; details: in vivo
[8] = Cumulative dose excreted after intraduodenal administration at 0-0.5 hours in rats; assay type: ADME, organism-based; details: rat, in vivo
[9] = Cumulative dose excreted after intraduodenal administration at 0.5-1.0 hours in rats; assay type: ADME, organism-based; details: rat, in vivo
[10] = Cumulative dose excreted after intraduodenal administration at 1.0-1.5 hours in rats; assay type: ADME, organism-based; details: rat, in vivo
[11] = Cumulative dose excreted after intraduodenal administration at 1.5-2.0 hours in rats; assay type: ADME, organism-based; details: rat, in vivo
[12] = Cumulative dose excreted after intraduodenal administration at 2-3 hours in rats; assay type: ADME, organism-based; details: rat, in vivo
[13] = tested on: Rattus norvegicus; assay: Cumulative dose excreted after intraduodenal administration at 4-6 hours in rats; assay type: ADME, organism-based; details: in vivo, other
[14] = Cumulative dose excreted after intraduodenal administration at 6-8 hours in rats; assay type: ADME, organism-based; details: rat, in vivo
[15] = tested on: Rattus norvegicus; assay: Cumulative dose excreted after intraduodenal administration at 8-24 hours in rats; assay type: ADME, organism-based; details: in vivo, other
[16] = tested on: Rattus norvegicus; assay: Cumulative dose excreted after intravenous administration at 0-0.5 hours in rats; assay type: ADME, organism-based; details: in vivo
[17] = Cumulative dose excreted after intravenous administration at 0.5-1 hours in rats; assay type: ADME, organism-based; details: rat, in vivo
[18] = Cumulative dose excreted after intravenous administration at 1.0-1.5 hours in rats; assay type: ADME, organism-based; details: rat, in vivo
[19] = tested on: Rattus norvegicus; assay: Cumulative dose excreted after intravenous administration at 1.5-2 hours in rats; assay type: ADME, organism-based; details: in vivo
[20] = tested on: Rattus norvegicus; assay: Cumulative dose excreted after intravenous administration at 2-3 hours in rats; assay type: ADME, organism-based; details: in vivo
[21] = tested on: Rattus norvegicus; assay: Cumulative dose excreted after intravenous administration at 3-4 hours in rats; assay type: ADME, organism-based; details: in vivo
[22] = tested on: Rattus norvegicus; assay: Cumulative dose excreted after intravenous administration at 4-6 hours in rats; assay type: ADME, organism-based; details: in vivo
[23] = tested on: Rattus norvegicus; assay: Cumulative dose excreted after intravenous administration at 6-8 hours in rats; assay type: ADME, organism-based; details: in vivo
[24] = tested on: Rattus norvegicus; assay: Cumulative dose excreted after intravenous administration at 8-24 hours in rats; assay type: ADME, organism-based; details: in vivo
[25] = tested on: Rattus norvegicus; assay: Compound was evaluated for the percentage of feces excretion of radioactivity, by male Sprague-Dawley rats after oral administration of compound dose (1 mg/kg) at 48-72 hr; assay type: ADME, organism-based; details: in vivo
[26] = tested on: Rattus norvegicus; assay: Compound was evaluated for the percentage of urine excretion of radioactivity, by male Sprague-Dawley rats after intravenous administration of compound dose (1 mg/kg) at 0-24 hr; assay type: ADME, organism-based; details: in vivo
[27] = tested on: Rattus norvegicus; assay: Compound was evaluated for the percentage of urine excretion of radioactivity, by male Sprague-Dawley rats after intravenous administration of compound dose (1 mg/kg) at 24-48 hr; assay type: ADME, organism-based; details: in vivo
[28] = target: T1, Renin (Homo sapiens, UniProt P00797); assay: Inhibitory activity against human renin inhibition (at pH 7.4)
T1 sequence (P00797 whole entry): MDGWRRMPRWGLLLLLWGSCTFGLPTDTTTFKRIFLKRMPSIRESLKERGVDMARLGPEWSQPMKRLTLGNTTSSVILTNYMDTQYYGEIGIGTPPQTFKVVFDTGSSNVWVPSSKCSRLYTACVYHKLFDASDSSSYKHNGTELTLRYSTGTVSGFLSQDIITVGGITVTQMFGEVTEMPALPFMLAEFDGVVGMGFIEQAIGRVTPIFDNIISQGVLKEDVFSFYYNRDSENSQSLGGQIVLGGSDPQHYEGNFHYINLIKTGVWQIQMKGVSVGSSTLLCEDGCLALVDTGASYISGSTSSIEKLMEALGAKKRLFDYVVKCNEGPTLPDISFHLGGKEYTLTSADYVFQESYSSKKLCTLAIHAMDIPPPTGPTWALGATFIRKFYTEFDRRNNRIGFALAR

[29] = Cumulative dose excreted after intraduodenal administration at 3-4 hours in rats; assay type: ADME, organism-based; details: rat, in vivo

## O=C1CCC[C@H](CN2CCOCC2)OC(=O)[C@H](O)[C@H](CC2CCCCC2)NC(=O)[C@@H](NC(=O)[C@H](Cc2ccccc2)NC2CN3CCC2CC3)CO1 (some centres undefined)
[1]
  Dose excreted: 81.7%
[2]
  Dose excreted: 3.3%
[3]
  Dose excreted: 43.5%
[4]
  Dose excreted: 3.5%
[5]
  Dose excreted: 3.1%
[6]
  Dose excreted: 0.7%
[7]
  Dose excreted: 0.3%
[8]
  Dose excreted: 2.4%
[9]
  Dose excreted: 3.3%
[10]
  Dose excreted: 3.6%
[11]
  Dose excreted: 3.9%
[12]
  Dose excreted: 4%
[13]
  Dose excreted: 4.3%
[14]
  Dose excreted: 4.4%
[15]
  Dose excreted: 4.7%
[16]
  Dose excreted: 35.7%
[17]
  Dose excreted: 42.7%
[18]
  Dose excreted: 44.6%
[19]
  Dose excreted: 45.5%
[20]
  Dose excreted: 46.4%
[21]
  Dose excreted: 46.9%
[22]
  Dose excreted: 47.5%
[23]
  Dose excreted: 47.9%
[24]
  Dose excreted: 48.7%
[25]
  Dose excreted: 0.2%
[26]
  Dose excreted: 18.5%
[27]
  Dose excreted: 0.7%
[28]
  IC50: 1.3 nM
[29]
  Dose excreted: 4.2%
